Assay results taken from patent US20250313635A1, “ANTI-INTEGRIN ANTIBODIES AND USES THEREOF” (Merck Sharp & Dohme LLC, priority 2022, published 2025).

What was measured:
[1] = test system: experimental diabetic nephropathy model; conditions: cited from earlier work
[2] = target: T1, mouse αvβ6 (Mus musculus, UniProt P43406+Q9Z0T9); test: Latent TGFβ activation assay, TMLC / CHOK1-integrin co-culture (PAI-1 luciferase); format: cell-based; conditions: FIG. 5B
T1 construct: expressed in transfected cells
T1 sequence (P43406 31-1044): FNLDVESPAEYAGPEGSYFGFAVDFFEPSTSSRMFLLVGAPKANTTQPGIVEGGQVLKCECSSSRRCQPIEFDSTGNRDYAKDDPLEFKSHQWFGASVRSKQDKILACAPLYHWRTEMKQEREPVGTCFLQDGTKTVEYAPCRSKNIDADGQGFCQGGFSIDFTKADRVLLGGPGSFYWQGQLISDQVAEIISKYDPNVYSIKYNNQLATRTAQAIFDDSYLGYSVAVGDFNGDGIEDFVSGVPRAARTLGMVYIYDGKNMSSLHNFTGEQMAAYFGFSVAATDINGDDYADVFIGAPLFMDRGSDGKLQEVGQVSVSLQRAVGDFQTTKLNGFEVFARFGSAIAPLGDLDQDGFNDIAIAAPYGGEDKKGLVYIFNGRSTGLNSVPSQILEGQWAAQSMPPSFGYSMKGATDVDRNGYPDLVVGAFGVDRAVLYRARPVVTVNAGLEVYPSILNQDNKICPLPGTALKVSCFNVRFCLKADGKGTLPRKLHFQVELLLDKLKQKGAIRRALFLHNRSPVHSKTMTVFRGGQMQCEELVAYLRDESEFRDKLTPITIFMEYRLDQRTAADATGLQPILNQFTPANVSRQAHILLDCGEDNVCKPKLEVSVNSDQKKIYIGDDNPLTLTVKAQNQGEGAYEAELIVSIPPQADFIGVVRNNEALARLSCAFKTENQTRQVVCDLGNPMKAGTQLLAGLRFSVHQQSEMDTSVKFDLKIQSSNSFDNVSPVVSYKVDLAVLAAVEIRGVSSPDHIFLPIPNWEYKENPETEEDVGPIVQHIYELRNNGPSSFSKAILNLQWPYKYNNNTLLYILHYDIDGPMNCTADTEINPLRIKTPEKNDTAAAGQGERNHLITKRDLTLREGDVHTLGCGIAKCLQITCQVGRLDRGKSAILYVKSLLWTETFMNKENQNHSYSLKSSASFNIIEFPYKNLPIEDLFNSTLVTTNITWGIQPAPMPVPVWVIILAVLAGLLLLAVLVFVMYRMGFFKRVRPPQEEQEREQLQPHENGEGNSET
T1 sequence (Q9Z0T9 22-787): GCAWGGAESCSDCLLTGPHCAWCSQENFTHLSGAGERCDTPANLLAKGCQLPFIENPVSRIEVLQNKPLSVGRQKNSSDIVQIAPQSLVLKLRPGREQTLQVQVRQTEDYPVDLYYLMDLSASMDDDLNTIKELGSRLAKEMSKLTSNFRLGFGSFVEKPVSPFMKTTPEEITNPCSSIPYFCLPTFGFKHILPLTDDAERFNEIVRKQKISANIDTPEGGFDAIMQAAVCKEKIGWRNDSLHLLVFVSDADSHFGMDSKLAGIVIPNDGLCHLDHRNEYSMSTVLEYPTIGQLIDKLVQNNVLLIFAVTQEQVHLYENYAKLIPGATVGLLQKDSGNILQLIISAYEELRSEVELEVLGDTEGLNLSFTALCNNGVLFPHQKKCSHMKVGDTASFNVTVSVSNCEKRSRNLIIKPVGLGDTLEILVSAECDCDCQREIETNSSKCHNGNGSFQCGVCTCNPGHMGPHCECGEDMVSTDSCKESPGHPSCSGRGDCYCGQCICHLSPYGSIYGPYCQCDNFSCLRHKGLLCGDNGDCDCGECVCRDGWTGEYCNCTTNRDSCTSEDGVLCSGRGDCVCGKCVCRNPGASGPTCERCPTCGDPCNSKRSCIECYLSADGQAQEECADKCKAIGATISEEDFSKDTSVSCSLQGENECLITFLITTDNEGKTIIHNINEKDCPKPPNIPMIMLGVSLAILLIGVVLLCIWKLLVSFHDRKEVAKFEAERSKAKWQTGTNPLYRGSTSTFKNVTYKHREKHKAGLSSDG
Protocol: (§1) Latent TGFβ activation assay. Transfected mink lung epithelial cell (TMLC) cell line containing the TGFβ responsive PAI-1 promoter driving luciferase expression (Mazzieri et al, Methods Mol. Biol. 142, 13-27 (2000)) and the CHO-K1 human and mouse αvβ×integrin cell lines were grown under optimized growth conditions to 90% confluency. TMLC cells were trypsinized and plated at 25,000 cells/well in 50 μL in Costar clear bottom white walled plates. In a separate plate, 25 μL of serially diluted antibodies at 4×concentration were added to wells containing 25 μL of either 25,000 cells of human or mouse αvβ×cells. After a brief mixing, the 50 μL mixture was transferred to the TMLC cell plates for a total volume of 100 μL and incubated at 37° C. for 16 hours. 100 μL of ONE-Glo kit (#PRE6120) was added to each well and read after three to five minutes on the Envision plate reader.

[3] = target: T2, human αvβ1 (Homo sapiens, UniProt P05556+P06756); test: as above; format: cell-based; conditions: FIG. 5B
T2 construct: expressed in transfected cells
Protocol: as §1

[4] = target: T3, mouse αvβ1 (Mus musculus, UniProt P09055+P43406); test: as above; format: cell-based; conditions: FIG. 5B
T3 construct: expressed in transfected cells
T3 sequence (P43406 31-1044): as the sequence (P43406 31-1044) above
T3 sequence (P09055 21-798): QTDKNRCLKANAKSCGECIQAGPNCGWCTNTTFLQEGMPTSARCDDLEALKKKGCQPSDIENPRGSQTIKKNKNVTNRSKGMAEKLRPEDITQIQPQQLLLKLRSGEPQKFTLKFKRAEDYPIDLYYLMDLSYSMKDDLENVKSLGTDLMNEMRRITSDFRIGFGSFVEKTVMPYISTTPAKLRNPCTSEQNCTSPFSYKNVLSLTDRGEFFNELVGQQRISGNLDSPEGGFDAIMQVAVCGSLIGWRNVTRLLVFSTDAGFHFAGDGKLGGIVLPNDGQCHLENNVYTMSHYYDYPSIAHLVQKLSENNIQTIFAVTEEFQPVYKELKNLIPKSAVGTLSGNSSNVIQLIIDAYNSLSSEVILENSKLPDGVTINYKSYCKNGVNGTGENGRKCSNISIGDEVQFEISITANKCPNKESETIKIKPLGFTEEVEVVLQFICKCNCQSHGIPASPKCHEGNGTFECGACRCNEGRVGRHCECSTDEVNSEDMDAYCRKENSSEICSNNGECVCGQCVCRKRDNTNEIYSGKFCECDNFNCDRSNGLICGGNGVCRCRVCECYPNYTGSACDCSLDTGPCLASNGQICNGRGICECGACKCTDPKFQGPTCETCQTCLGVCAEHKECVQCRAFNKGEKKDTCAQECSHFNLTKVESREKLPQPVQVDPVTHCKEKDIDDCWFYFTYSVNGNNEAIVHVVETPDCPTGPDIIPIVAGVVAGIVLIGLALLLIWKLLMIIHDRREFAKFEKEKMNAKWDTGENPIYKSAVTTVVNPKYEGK
Protocol: as §1

[5] = target: T4, human αvβ6 (Homo sapiens, UniProt P06756+P18564); test: as above; format: cell-based; conditions: FIG. 5B
T4 construct: expressed in transfected cells
T4 sequence (P06756 31-1048): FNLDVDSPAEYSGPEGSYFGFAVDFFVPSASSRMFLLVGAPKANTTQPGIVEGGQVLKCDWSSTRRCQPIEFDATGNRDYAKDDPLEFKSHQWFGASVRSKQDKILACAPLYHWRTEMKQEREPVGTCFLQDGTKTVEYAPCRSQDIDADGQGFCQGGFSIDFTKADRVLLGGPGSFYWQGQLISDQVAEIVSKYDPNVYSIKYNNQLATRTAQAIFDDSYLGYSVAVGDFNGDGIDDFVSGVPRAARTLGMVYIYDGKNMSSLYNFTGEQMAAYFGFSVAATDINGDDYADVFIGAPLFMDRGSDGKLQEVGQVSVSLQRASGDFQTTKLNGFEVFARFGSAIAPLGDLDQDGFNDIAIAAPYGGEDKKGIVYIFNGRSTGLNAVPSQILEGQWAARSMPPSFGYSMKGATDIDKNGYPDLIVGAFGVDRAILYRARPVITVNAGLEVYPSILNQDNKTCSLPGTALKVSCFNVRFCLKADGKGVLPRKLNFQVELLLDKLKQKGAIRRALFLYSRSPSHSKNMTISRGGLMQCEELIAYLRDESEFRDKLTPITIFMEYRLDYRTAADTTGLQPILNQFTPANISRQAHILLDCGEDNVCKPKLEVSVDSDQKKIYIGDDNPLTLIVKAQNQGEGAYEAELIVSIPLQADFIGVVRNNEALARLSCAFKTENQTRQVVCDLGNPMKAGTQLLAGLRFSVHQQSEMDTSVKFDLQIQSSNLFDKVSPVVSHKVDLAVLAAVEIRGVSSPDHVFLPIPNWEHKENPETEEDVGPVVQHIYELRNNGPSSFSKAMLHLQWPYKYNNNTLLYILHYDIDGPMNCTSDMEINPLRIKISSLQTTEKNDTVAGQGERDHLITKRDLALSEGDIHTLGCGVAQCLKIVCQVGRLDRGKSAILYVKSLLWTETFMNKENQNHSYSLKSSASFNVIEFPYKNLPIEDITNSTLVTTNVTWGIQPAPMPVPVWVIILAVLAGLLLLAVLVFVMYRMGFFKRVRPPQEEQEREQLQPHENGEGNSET
T4 sequence (P18564 22-788): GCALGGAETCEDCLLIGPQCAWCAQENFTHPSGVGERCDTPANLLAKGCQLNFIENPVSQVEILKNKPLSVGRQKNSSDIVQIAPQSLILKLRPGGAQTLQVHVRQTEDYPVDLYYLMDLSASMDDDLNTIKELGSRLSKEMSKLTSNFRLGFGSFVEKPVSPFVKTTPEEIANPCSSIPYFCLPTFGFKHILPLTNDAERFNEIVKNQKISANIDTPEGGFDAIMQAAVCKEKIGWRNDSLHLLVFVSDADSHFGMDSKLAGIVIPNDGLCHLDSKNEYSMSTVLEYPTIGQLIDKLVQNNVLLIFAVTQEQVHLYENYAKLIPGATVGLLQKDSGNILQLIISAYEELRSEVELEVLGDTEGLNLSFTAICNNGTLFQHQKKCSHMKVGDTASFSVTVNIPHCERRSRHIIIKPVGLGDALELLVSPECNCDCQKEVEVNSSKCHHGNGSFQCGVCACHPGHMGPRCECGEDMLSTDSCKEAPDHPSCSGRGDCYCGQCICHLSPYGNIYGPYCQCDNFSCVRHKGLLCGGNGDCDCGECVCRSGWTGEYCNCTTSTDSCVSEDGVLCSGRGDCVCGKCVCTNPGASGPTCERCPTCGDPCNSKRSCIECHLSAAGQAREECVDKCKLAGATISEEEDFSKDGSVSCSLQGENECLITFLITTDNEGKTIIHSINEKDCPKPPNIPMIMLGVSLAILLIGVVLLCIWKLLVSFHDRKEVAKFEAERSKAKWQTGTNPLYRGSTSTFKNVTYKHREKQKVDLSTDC
Protocol: as §1

[6] = target: T5, human αvβ8 (Homo sapiens, UniProt P06756+P26012); test: as above; format: cell-based; conditions: FIG. 5B
T5 construct: expressed in transfected cells
Protocol: as §1

[7] = test system: bleomycin-induced lung fibrosis mouse model; test: Mouse bleomycin lung fibrosis model; format: in vivo; conditions: MK-0429 200 mpk osmotic minipump, Nintedanib 60 mpk po qd
Protocol: Mouse bleomycin lungfibrosis models. Adult male C57BL/6 mice (Taconic, Rensselaer, NY) were housed in a temperature and humidity-controlled facility with a 12-hour light: 12-hour dark cycle. Animals had ad libitum access to food (Purina Rodent Chow 5053, LabDiet, St. Louis, MO) and water. All procedures utilizing experimental animals were conducted in accordance with the Guide for the Care and Use of Laboratory Animals, and experimental procedures were reviewed and approved by the Institutional Animal Care and Use Committee at MRL, Kenilworth, NJ.
For osmotic minipump implantation, trifluoroacetate (TFA) salt of MK-0429 was formulated in 50% dimethylsulfoxide (DMSO)/50% H2O at a concentration of 416 mg/mL. MK-0429 or vehicle solution were filled in minipumps (Alzet, #1007D, flow rate 0.5 μL/hour). Minipumps were placed in mice subcutaneously in a pocket on the back between the shoulder blades. A small incision was made and a subcutaneous pocket formed by blunt dissection. A sterile minipump was inserted into the subcutaneous pocket. The incision was closed with staples or non-absorbable suture or absorbable (subcuticular) suture. The minipumps were used for continuous drug delivery for two weeks.
Mice at 12˜13 weeks of age were randomized to five groups: saline, bleomycin instillation with vehicle (osmotic minipump), bleomycin instillation with MK-0429 treatment, bleomycin instillation with vehicle oral treatment, and bleomycin instillation with Nintedanib treatment. All mice were anaesthetized with isoflurane. Bleomycin was dosed by intratracheal (i.t) instillation in a volume of 50 μL, at a dose of 1 unit/kg body weight. After instillation, mice were kept in a heads-up position for 2-5 minutes before putting into cages. MK-0429 (200 mg/kg) was administered by Osmotic pump from day 5 to day 14 and Nintedanib (60 mg/kg) was administered, p.o., q.d., for 14 days. Vehicle was dosed orally at 10 am daily from the day 5 to the end of the studies and dosing volume was 10 mL/kg. For plasma PK analysis, an aliquot of 50 μL plasma was spiked into a 96-well plate, and 200 μL of acetonitrile containing internal standard were added for protein precipitation. The mixture was vortexed, centrifuged at 4000 rpm for 20 minutes. Then 50 μL of supernatant fraction was mixed with 200 μL H2O and the final solution were injected for LC-MS/MS analysis. The methods for quantitative analysis were developed on UPLC (Waters) chromatographic system equipped with an API4000 QTrap™ mass spectrometer (Applied Biosystems, Concord, Ontario, Canada). Analyst 1.5 software packages (Applied Biosystems) were used to control the LC-MS/MS system and data acquisition and processing.
Histopathology analysis. Upon completion of the study, animals were euthanized and tissues were collected for histological assessment. Lung tissues were perfused with 10% formalin, fixed for 24 hours, and then paraffin embedded. Tissue sections were stained with hematoxylin & eosin (H&E) and Masson's trichrome, subsequently evaluated under light microscope. The severity of histopathologic changes and fibrosis in the lung were graded as described previously by pathologists (Ashcroft et al., J. Clin. Pathol. 41, 467-470 (1988); Hubner et al., Biotechniques 44(507-511), 514-607 (2008)). Following deparaffinization and rehydration, each lung tissue section was processed to identify αSMA deposition by immunohistochemistry. The primary antibodies used were αSMA antibody from Sigma. The Aperio ScanScope™ XT Slide Scanner (Aperio Technologies) system was used to capture whole slide digital images with a 20×objective. Digital images were managed using Aperio Spectrum™. The positive stains were identified and quantified using a macro created from a color deconvolution algorithm (Aperio Technologies). Statistical analysis was performed by using One-way ANOVA followed by Tukey's test.

[8] = 14 days treatment, vs BLM-vehicle

COc1ccc([C@H](CC(=O)O)N2CCN(CCCc3ccc4c(n3)NCCC4)C2=O)cn1 [MK-0429, (3S)-3-(6-methoxypyridin-3-yl)-3-[2-oxo-3-[3-(5,6,7,8-tetrahydro-1,8-naphthyridin-2-yl)propyl]imidazolidin-1-yl]propanoic acid]
proteinuria [1]: reduces
renal fibrosis [1]: reduces
inhibition of latent TGFβ activation, mouse αvβ6 co-culture [2]: strong inhibitory effect
inhibition of latent TGFβ activation, human αvβ1 co-culture [3]: strong inhibitory effect
inhibition of latent TGFβ activation, mouse αvβ1 co-culture [4]: strong inhibitory effect
inhibition of latent TGFβ activation, human αvβ6 co-culture [5]: strong inhibitory effect
inhibition of latent TGFβ activation, human αvβ8 co-culture [6]: strong inhibitory effect
body weight difference vs bleomycin group [7]: no significant body weight difference
BALF TIMP-1 content [7, 8]: did not reach statistical significance
bleomycin-induced αSMA expression (IHC) [7, 8]: significantly decreased
inflammation in the lung [7, 8]: nonstatistical significant decrease
modified Ashcroft score [7, 8]: significantly decreased
